Columns and labels:
[1] = system: BaF3; test: Antiproliferative activity against mouse BaF3 cells harboring del19/T790M/C797S mutant assessed as inhibition of cell proliferation; type: functional, cell-based
[2] = system: PC-9; test: Antiproliferative activity against human PC-9 cells harboring EGFR del19/T790M/C797S mutant assessed as inhibition of cell proliferation; type: functional, cell-based
[3] = Tmax in CD-1 mouse at 10 mg/kg, po; type: ADME, organism-based; settings: in vivo
[4] = target: Epidermal growth factor receptor (Homo sapiens, UniProt P00533, C797S/EX19DEL/T790M); test: Inhibition of EGFR del19/T790M/C797S mutant (unknown origin)
[5] = Cmax in CD-1 mouse at 10 mg/kg, po; type: ADME, organism-based; set-up: dose 10 mg/kg, route po; settings: in vivo
[6] = target: Epidermal growth factor receptor (Homo sapiens, UniProt P00533); test: Inhibition of wild type EGFR (unknown origin)
[7] = Half-life in CD-1 mouse at 2 mg/kg, iv; type: ADME, organism-based; settings: in vivo
[8] = species on record: Homo sapiens; test: Selectivity ratio of IC50 for inhibition of wild type EGFR (unknown origin) to IC50 for inhibition of EGFR L858R/T790M/C797S mutant (unknown origin)
[9] = species on record: Homo sapiens; test: Selectivity ratio of IC50 for inhibition of wild type EGFR (unknown origin) to IC50 for inhibition of EGFR L858R/T790M mutant (unknown origin)
[10] = species on record: Homo sapiens; test: Selectivity ratio of IC50 for inhibition of wild type EGFR (unknown origin) to IC50 for inhibition of EGFR del19 mutant (unknown origin)
[11] = target: Epidermal growth factor receptor (Homo sapiens, UniProt P00533, L858R); test: Inhibition of EGFR L858R mutant (unknown origin)
[12] = target: Epidermal growth factor receptor (Homo sapiens, UniProt P00533, L858R/T790M); test: Inhibition of EGFR L858R/T790M mutant (unknown origin)
[13] = AUC (0 to last) in CD-1 mouse at 2 mg/kg, iv; type: ADME, organism-based; set-up: time 0 - last, dose 2 mg/kg, route iv; settings: in vivo
[14] = target: Epidermal growth factor receptor (Homo sapiens, UniProt P00533, EX19DEL/T790M); test: Inhibition of EGFR del19/T790M mutant (unknown origin)
[15] = species on record: Homo sapiens; test: Selectivity ratio of IC50 for inhibition of wild type EGFR (unknown origin) to IC50 for inhibition of EGFR del19/T790M mutant (unknown origin)
[16] = Volume of distribution at steady state in CD-1 mouse at 2 mg/kg, iv; type: ADME, organism-based; settings: in vivo, read-out: Vdss
[17] = Oral bioavailability in CD-1 mouse at 10 mg/kg; type: ADME, organism-based; settings: in vivo
[18] = AUC (0 to last) in CD-1 mouse at 10 mg/kg, po; type: ADME, organism-based; set-up: time 0 - last, dose 10 mg/kg, route po; settings: in vivo
[19] = species on record: Homo sapiens; test: Selectivity ratio of IC50 for inhibition of wild type EGFR (unknown origin) to IC50 for inhibition of EGFR del19/T790M/C797S mutant (unknown origin)
[20] = target: Epidermal growth factor receptor (Homo sapiens, UniProt P00533, C797S/L858R/T790M); test: Inhibition of EGFR L858R/T790M/C797S mutant (unknown origin)
[21] = target: Epidermal growth factor receptor (Homo sapiens, UniProt P00533, EX19DEL); test: Inhibition of EGFR del19 mutant (unknown origin)
[22] = species on record: Homo sapiens; test: Selectivity ratio of IC50 for inhibition of wild type EGFR (unknown origin) to IC50 for inhibition of EGFR L858R mutant (unknown origin)
[23] = Clearance in CD-1 mouse at 2 mg/kg, iv; type: ADME, organism-based; settings: in vivo
[24] = system: PC-9; test: cells; settings: Homo sapiens, PC-9, 72 h

Epidermal growth factor receptor (Homo sapiens, UniProt P00533, EX19DEL/T790M), sequence (P00533 whole entry, looked up, stated change not applied): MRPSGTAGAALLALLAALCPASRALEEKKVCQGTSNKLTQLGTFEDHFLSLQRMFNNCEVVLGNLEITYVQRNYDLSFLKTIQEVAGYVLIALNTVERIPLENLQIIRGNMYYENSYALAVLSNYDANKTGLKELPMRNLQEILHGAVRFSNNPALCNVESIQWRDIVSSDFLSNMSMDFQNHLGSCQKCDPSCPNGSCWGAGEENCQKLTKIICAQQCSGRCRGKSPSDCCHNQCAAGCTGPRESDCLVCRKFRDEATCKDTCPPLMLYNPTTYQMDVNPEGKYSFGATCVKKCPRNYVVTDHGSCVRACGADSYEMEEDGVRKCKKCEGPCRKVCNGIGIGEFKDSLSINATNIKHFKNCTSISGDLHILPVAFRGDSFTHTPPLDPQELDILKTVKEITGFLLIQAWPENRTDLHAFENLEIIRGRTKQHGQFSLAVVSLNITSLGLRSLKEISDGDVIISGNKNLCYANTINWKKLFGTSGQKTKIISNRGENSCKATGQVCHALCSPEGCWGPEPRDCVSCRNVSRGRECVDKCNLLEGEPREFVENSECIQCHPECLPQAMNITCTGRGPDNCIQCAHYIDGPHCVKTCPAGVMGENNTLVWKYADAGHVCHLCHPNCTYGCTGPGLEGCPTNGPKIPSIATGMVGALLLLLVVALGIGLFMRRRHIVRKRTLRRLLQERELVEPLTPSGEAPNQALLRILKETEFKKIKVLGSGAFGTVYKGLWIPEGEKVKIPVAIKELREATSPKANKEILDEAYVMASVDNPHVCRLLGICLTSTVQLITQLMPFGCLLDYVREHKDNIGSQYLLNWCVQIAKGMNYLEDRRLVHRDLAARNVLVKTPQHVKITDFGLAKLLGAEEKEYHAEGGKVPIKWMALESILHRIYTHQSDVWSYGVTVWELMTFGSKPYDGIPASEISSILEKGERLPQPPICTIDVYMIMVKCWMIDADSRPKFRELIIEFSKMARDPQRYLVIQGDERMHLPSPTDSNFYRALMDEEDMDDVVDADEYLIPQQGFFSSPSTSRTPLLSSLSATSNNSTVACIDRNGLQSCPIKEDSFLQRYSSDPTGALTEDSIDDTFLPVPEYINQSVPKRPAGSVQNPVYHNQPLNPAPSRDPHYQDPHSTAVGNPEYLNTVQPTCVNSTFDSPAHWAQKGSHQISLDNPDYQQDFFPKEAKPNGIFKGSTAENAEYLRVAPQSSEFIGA
Epidermal growth factor receptor (Homo sapiens, UniProt P00533, C797S/EX19DEL/T790M), sequence (P00533 whole entry, looked up, stated change not applied): as above
Epidermal growth factor receptor (Homo sapiens, UniProt P00533, EX19DEL), sequence (P00533 whole entry, looked up, stated change not applied): as above
Epidermal growth factor receptor (Homo sapiens, UniProt P00533), sequence (P00533 whole entry): as the sequence (P00533 whole entry, looked up, stated change not applied) above

With `CCc1cc(Nc2ncc(Br)c(Nc3ccc4nccnc4c3P(C)(C)=O)n2)c(OC)cc1N1CCC(N2CCN(CCSC)CC2)CC1` the IC50 [1] was 3.87 nM and the IC50 [2] was 148 nM.

`COc1cc(N2CCC(N3CCN(C)CC3)CC2)ccc1Nc1ncc(Br)c(Nc2cc3c4c(cccc4c2P(C)(C)=O)COC3)n1` gave an IC50 [1] greater than 1000 nM and an IC50 [2] greater than 1000 nM.

`COc1cc(N2CCC(N3CCN(C)CC3)CC2)ccc1Nc1ncc(Br)c(Nc2cc3c4c(cccc4c2P(C)(C)=O)CC3)n1` gave an IC50 [1] greater than 1000 nM and an IC50 [2] greater than 1000 nM.

In the case of `COc1cc(N2CCC(N3CCN(C)CC3)CC2)ccc1Nc1ncc(Br)c(Nc2ccc3c(ccc4ccccc43)c2P(C)(C)=O)n1`, the IC50 [1] is reported as greater than 1000 nM and the IC50 [2] is reported as greater than 1000 nM.

For `CCc1cc(Nc2ncc(Br)c(Nc3ccc4nccnc4c3P(C)(C)=O)n2)c(OC)cc1N1CCC(N2CCN(CCS(C)(=O)=O)CC2)CC1`, the Tmax [3] was 0.5 h, the IC50 [4] was 0.2 nM and the Cmax [5] was 6600 ng/mL. For the same molecule, the IC50 [6] was 10.4 nM, the half-life [7] was 3.3 h and the Ratio IC50 [8] was 41. The Ratio IC50 [9] was 43, the Ratio IC50 [10] was 11 and the IC50 [11] was 3.1 nM. For the same molecule, the IC50 [12] was 0.2 nM, the AUClast [13] was 13820 ng·h/mL and the IC50 [14] was 0.1 nM. The Ratio IC50 [15] was 81, the Vd [16] was 0.7 L/kg and the bioavailability [17] was 48.9%. For the same molecule, the AUC(0-t) [18] was 33800 ng·h/mL, the Ratio IC50 [19] was 54 and the IC50 [20] was 0.3 nM. For the same molecule, the IC50 [1] was 1.53 nM, the IC50 [2] was 66.7 nM and the IC50 [21] was 0.9 nM. For the same molecule, the Ratio IC50 [22] was 3.4 and the clearance [23] was 2.4 mL/min/kg.

Molecule `COc1cc(N2CCC(N3CCN(C)CC3)CC2)ccc1Nc1ncc(Cl)c(Nc2ccccc2P(C)(C)=O)n1` [BRIGATINIB] has an IC50 [24] of 599 nM.

In the case of `COc1cc(N2CCC(N3CCN(C)CC3)CC2)c(-c2cnn(C3CC3)c2)cc1Nc1ncc(Br)c(Nc2ccc(C)c(C)c2P(C)(C)=O)n1`, the IC50 [1] is reported as greater than 1000 nM and the IC50 [2] is reported as greater than 1000 nM.

For `CCc1cc(Nc2ncc(Br)c(Nc3ccc4c(ccc5ccccc54)c3P(C)(C)=O)n2)c(OC)cc1N1CCC(N2CCN(C)CC2)CC1`, the IC50 [1] was greater than 1000 nM and the IC50 [2] was greater than 1000 nM.

`COc1cc(N2CCC(N3CCN(C)CC3)CC2)c(-c2cnn(C)c2)cc1Nc1ncc(Br)c(Nc2cc(F)c(C)c(C)c2P(C)(C)=O)n1` gave an IC50 [1] greater than 1000 nM and an IC50 [2] greater than 1000 nM.

With `CCc1cc(Nc2ncc(Br)c(Nc3ccc4nccnc4c3P(C)(C)=O)n2)c(OC)cc1N1CCC(N(C)CCS(C)(=O)=O)CC1` the IC50 [2] was 127 nM.

`COc1cc(N2CCC(N3CCN(C)CC3)CC2)c(-c2cnn(C)c2)cc1Nc1ncc(Br)c(Nc2cc(C)c(C)c(C)c2P(C)(C)=O)n1` showed an IC50 [1] of 3.6 nM and an IC50 [2] of 67.4 nM.

`COc1cc(N2CCC(N3CCN(CCS(C)(=O)=O)CC3)CC2)c(-c2cnn(C)c2)cc1Nc1ncc(Br)c(Nc2ccc(C)c(C)c2P(C)(C)=O)n1` showed an IC50 [1] greater than 1000 nM and an IC50 [2] greater than 1000 nM.

Work on `CCc1cc(Nc2ncc(Br)c(Nc3cc4c5c(cccc5c3P(C)(C)=O)CC4)n2)c(OC)cc1N1CCC(N2CCN(C)CC2)CC1` yielded an IC50 [1] greater than 1000 nM and an IC50 [2] greater than 1000 nM.

For `CCc1cc(Nc2ncc(Br)c(Nc3ccc(C4CC4)cc3P(C)(C)=O)n2)c(OC)cc1N1CCC(N2CCN(CCS(C)(=O)=O)CC2)CC1`, the IC50 [1] was greater than 1000 nM and the IC50 [2] was greater than 1000 nM.

Molecule `CCc1cc(Nc2ncc(Br)c(Nc3cc4c5c(cccc5c3P(C)(C)=O)COC4)n2)c(OC)cc1N1CCC(N2CCN(C)CC2)CC1` has an IC50 [1] greater than 1000 nM and an IC50 [2] greater than 1000 nM.

`CCc1cc(Nc2ncc(Br)c(Nc3ccc4nc5c(nc4c3P(C)(C)=O)CCCC5)n2)c(OC)cc1N1CCC(N2CCN(C)CC2)CC1` gave an IC50 [1] of 37.4 nM and an IC50 [2] of 217 nM.

From ChEMBL document CHEMBL5113388 (Bioorg Med Chem Lett, 2022)
